Test: Human HepG2 cell viability assay in 384 well format
Assay type: toxicity, cell-based
Set-up: dose 125 nL, time 70.5 hour; concentration not given beside the values
Details: HepG2 cells, read-out: Inhibition

| SMILES | cytotoxicity at 70.5 h [%] |
| --- | --- |
| O=C1CCCC2=C1C(c1cccc(F)c1F)Nc1nonc1N2 (configuration not stated) | 1.2 |
| N#CC1=C(N)Nn2c(nnc2-c2ccccc2F)S1 | -36.2 |
| Cc1nnc(SC2CCc3ccccc3NC2=O)n1C (configuration not stated) | -23 |
| CN1CCN(CCCNC(=O)c2nc3ccccc3c(=O)[nH]2)CC1 | -19.4 |
| CC(C)CCNC(=O)Cc1cnc(-n2cccc2)s1 | -21 |
| CC(=O)Nc1ccc(OCc2noc(C(=O)N3CCCC3)n2)cc1 | -14.2 |
| CCC(C)[C@H](NC(=O)c1cc(F)ccc1-n1cnnn1)C(=O)OC (some centres not stated) | -13.4 |
| O=C(Cc1noc(C(=O)NCCO)n1)Nc1cccc(C(F)(F)F)c1 | -22.4 |
| COc1cc2c(cc1OC)C(=O)C(Sc1nnnn1C)C2 (configuration not stated) | -18.6 |
| O=S1(=O)CCC(S(=O)(=O)c2cccc(S(=O)(=O)N3CCCC3)c2)C1 (configuration not stated) | -12.1 |
| COc1ccccc1N1CCN(c2nc(N)nc3[nH]cnc23)CC1 | -11.3 |
| CC(C)c1ccc2c(c1)C1(CC(=O)Nc3[nH]ncc31)C(=O)N2C (configuration not stated) | -19.6 |
| c1ccc(CNc2nc(N3CCOCC3)nc3nccnc23)cc1 | -12.1 |
| Cn1ccnc1SC1CCc2ccccc2NC1=O (configuration not stated) | -23.5 |
| CCOC(=O)c1nc(CC(=O)Nc2ccccc2)no1 | -17.6 |
| COCC(=O)N(Cc1ccc2[nH]ccc2c1)C1CC1 | -25.2 |
| Cc1nc2oc(C(=O)N3CCCC3)c(N)c2c2c1CCCC2 | -16.9 |
| O=C(Cc1cnc(-n2cccc2)s1)NCCCO | -25 |
| CCOC(=O)c1nc(COc2c(C)occc2=O)no1 | -20.5 |
| Cc1cc(C)n(Cc2ccc(-c3noc(C(=O)NCCCO)n3)cc2)n1 | -21.4 |
| Cc1occc(=O)c1OCc1noc(C(=O)NCC2CC2)n1 | -16.6 |

| SMILES | cytotoxicity at 70.5 h [%] |
| --- | --- |
| N#Cc1nc(COc2ccc3c(c2)OCO3)oc1NC1CC1 | -28.4 |
| C[C@@H](O)CNC(=O)c1nc(CC(=O)Nc2ccccc2)no1 | -19.3 |
| COC(=O)[C@H](CC(C)C)NC(=O)c1snnc1-c1ccc(OC)cc1 | 10.9 |
| Cc1nc(NC(=O)c2c(-n3cnnn3)sc3c2CCC3)sc1C | -5.79 |
| CC(=O)CSc1sc2c(O)cc(=O)[nH]c2c1C(N)=O | -12.7 |
| CN1C(=O)COc2ccc(C(=O)Cn3cnc4ccccc4c3=O)cc21 | -12 |
| COC(=O)c1cc2c(=O)n(C3CCCC3)ccc2nc1C | -15.4 |
| CC(C)C[C@H](NC(=O)NC1CCS(=O)(=O)C1)C(=O)NCc1cccnc1 (some centres not stated) | -16 |
| CN1CCN(C(=O)c2cc3occc3n2Cc2ccccc2F)CC1 | -10.6 |
| Cc1cccc(NC(=O)C2(n3cnnn3)CCCCC2)n1 | -26.9 |
| COc1coc(C(=O)Nc2ccncc2)cc1=O | -12.7 |
| Cc1nc(C)c(CC(=O)NCc2ccc(F)cc2)s1 | -11.4 |
| COc1ccccc1NC(=O)Cn1c(=O)nc(N)c2cc(C)sc21 | -16.1 |
| O=C(c1cc(=O)c(OCc2ccccc2F)co1)N1CCCC1 | 1.91 |
| COC(=O)c1cc2c(=O)n(C3CC3)ccc2nc1C | 2.32 |
| CC(C)NC(=O)c1csc(NC2CC2)n1 | 0.174 |
| CCCSc1nn(CCN(C)C)c2nc3sc(C)c(CC)c3c(=O)n12 | 32.5 |
| CCCSc1nn(CCCN(C)C)c2nc3sc(C)c(CC)c3c(=O)n12 | 11.5 |
| COc1ccc2cnn(CC(=O)NCC3CCCO3)c(=O)c2c1OC (configuration not stated) | -3.4 |
| CC(C)Nc1nc(C(=O)Nc2ccccn2)cs1 | -13.8 |
| O=C1CC(c2ccncc2)c2c(c(C(=O)O)cn2-c2ccccc2)N1 (configuration not stated) | -8.17 |

| SMILES | cytotoxicity at 70.5 h [%] |
| --- | --- |
| CCc1c(C)sc2c1c(N)nc(=O)n2CCN1CCOCC1 | 9.55 |
| Cc1n[nH]c2c1C(c1ccc3c(c1)OCCO3)SCC(=O)N2 (configuration not stated) | -0.607 |
| CC1CCN(c2ccc(=O)n(CC(=O)NCCc3ccccc3)n2)CC1 | 5.19 |
| CN1CCN(C(=O)c2cc3sccc3n2Cc2ccc(Cl)cc2)CC1 | -5.06 |
| CC(=O)N1CCN(CCNC(=O)c2nc3ccccc3c(=O)[nH]2)CC1 | -7.43 |
| CC1CC(=O)c2cc(C(=O)N3CCc4ccccc4C3)c(=O)[nH]c2C1 (configuration not stated) | -2.25 |
| Cc1n[nH]c2nc(-c3cccc(Cl)c3)cc(C(=O)O)c12 | 9.1 |
| CN1CCN(C(=O)c2cc3sccc3n2Cc2ccccc2Cl)CC1 | -6.69 |
| Cc1nn(C)cc1C1CC(=O)Nc2c1cnn2C(C)(C)C (configuration not stated) | -4.68 |
| O=C(CC1CC1)N1CCC2(CC1)CN(CCn1cccn1)C(=O)CO2 | -4.82 |
| O=S(=O)(C1CC1)N1CCc2ncc(Cn3cncn3)n2CC1 | -3.06 |
| CN(C)Cc1nn(C)c2c1CN(C(=O)Nc1cccc(F)c1)C2 | -2.91 |
| CN(C)Cc1nn(C)c2c1CN(C(=O)Nc1ccc(F)cc1)C2 | -3.55 |
| NC(=O)N1CC[C@H]2CO[C@H](CNC(=O)c3ccnnc3)[C@H]2C1 | -0.828 |
| O=C1[C@@H]2CCN(CC3CCOCC3)C[C@@H]2OCCN1c1ccccc1 | 1.16 |
| O=C(c1ncn2c1CNS(=O)(=O)c1ccccc1-2)N1CCCCC1 | -2.38 |
| CCN1CC[C@]2(CN(C(=O)[C@H]3CCCO3)C[C@H]2c2ccccc2)C1=O | -1.85 |
| CC(C)c1nc(-c2cc(C(=O)NCCCO)c3ccccn23)cs1 | -3.65 |
| N#Cc1cccc(CN2CCO[C@@H]3CNC[C@@H]32)c1 | -1.26 |
| CCn1ncc2c1CN(C(=O)c1ccc3c(c1)OCO3)CC2COC (configuration not stated) | -1.24 |
| CN(C)CCOCc1nnc2n1CCN(c1cnccn1)CC2 | 12.4 |

| SMILES | cytotoxicity at 70.5 h [%] |
| --- | --- |
| CC(C)c1nc(-c2cc(C(=O)O)c3ccccn23)cs1 | 10.6 |
| CCS(=O)(=O)N1Cc2c(Cn3ccnc3)nn(C)c2C1 | -2.09 |
| O=C(NC1CC1)N1CCOC2(CCCN(c3cccc(F)c3)C2)C1 (configuration not stated) | -3.8 |
| N#Cc1cccc(N2CCCC3(CN(C(=O)[C@H]4CCCO4)CCO3)C2)c1 (some centres not stated) | -0.958 |
| CCN(CC)Cc1nc2c(o1)CN(C(=O)c1ccc3ncccc3c1)C2 | -4.56 |
| CCC(C)Nc1ccc2c(c1)C1(CCOCC1)C(=O)N2c1ccccc1 (configuration not stated) | -7.71 |
| COc1cccc(CC(=O)N2CCc3nc(C(N)=O)sc3CC2)c1 | -8.31 |
| c1ccc(CN2CCOC3CNCC[C@H]32)cc1 (some centres not stated) | 13.7 |
| CCOCC1CN(C(=O)c2cc(C)oc2C)Cc2c1cnn2C (configuration not stated) | -0.121 |
| CC(C)NC(=O)[C@@H]1CN(Cc2ccc3c(c2)OCO3)C[C@H]2OCC[C@H]21 | -2.81 |
| Cn1nc(CNC(=O)CC#N)c2c1CN(CC1CC1)CC2 | -3.91 |
| Cc1ccccc1N1CC2(CCCCN2CC2CC2)CC1=O (configuration not stated) | -3.78 |
| Cc1cnc(N2CCOC3(CCCN(C)C3)C2)nc1 (configuration not stated) | -10.1 |
| COc1cccc(CN2CCc3nc(C(N)=O)sc3CC2)c1 | -7.05 |
| O=S(=O)(C1CC1)N1CCC2(CN(c3ccccn3)C2)C1 | -7.95 |
| COCCN1CCOCC12CCN(Cc1ccn(C)n1)CC2 | -5.01 |
| Cc1nc(Cn2c3c(ccc2=O)CCN(CC2CCC2)CC3)cs1 | -9.15 |
| COCCN1CCc2ccc(=O)n(Cc3csc(C)n3)c2CC1 | -6.35 |
| COc1ccccc1CCNC(=O)C1CCC(Cn2cnnn2)CC1 (configuration not stated) | -18.1 |
